In patent US9771430B2, “Method of treating a metabolic disorder induced by obesity in a subject in need thereof by administering MK2/3 inhibitors” (THE TRUSTEES OF COLUMBIA UNIVERSITY IN THE CITY OF NEW YORK, priority 2011, dated 2017):

What was measured:
[1] = system: CRE-luciferase (luc) reporter; assay: CRE-luciferase reporter activity in primary hepatocytes; type: cell-based, mouse; conditions: response to glucagon
Procedure: (§1) HEK293T (ATCC) cells were cultured in DMEM containing 10% FBS (HyClone), […] penicillin-streptomycin. Mouse primary hepatocytes were isolated and cultured as previously described (18). Cellular fractionation studies were conducted as previously reported (18). For reporter studies, Ad-CRE-luc infected hepatocytes (1 pfu per cell) were exposed to glucagon (Gcg, 100 nM) for 2˜4 h. For cyclosporine A (CsA, 10 μM) or okadaic acid (OA, 100 nM) or cell permeable calcineurin autoinhibitory peptide (10 μM) or CN585 (100 μM) or Calyculin A (10 nM) or Xestospongin C (Xc, 2 μM) or H89 (30 μM) or BAPTA (50 μM) inhibition, hepatocytes were pre-treated with the inhibitors for one hour. Luciferase activities were normalized to β-galactosidase activity from adenoviral-encoded RSV β-gal. Calcineurin activity (test kit from Enzo Life Sciences) and cellular cAMP levels (test kit from Cayman Chemical Company) were measured according to manufacturer's instructions.

CRTC2 = CRTC2 dephosphorylation and nuclear translocation in primary hepatocytes; type: cell-based, mouse; conditions: inhibitor pre-treatment 1 h, glucagon 100 nM
Procedure: as §1
Immunoblot, immunoprecipitation, and immunostaining assays were performed as described (18). CRTC2, pCREB (Ser133), CREB, pAKT (Thr308), AKT, tubulin, HA, and FLAG antibodies were previously described (18). The antibodies anti-InsP3R1 (A302-158A) and InsP3R3 (A302-160A) were purchased from Bethyl Laboratories, anti-InsP3R2 (ab77838) from Abcam, anti-Calcineurin (610260) from BD Biosciences, anti-GRP78 (ADI-SPA-826-F) from Enzo Life Sciences, anti-phospho-PKA substrate (RRXS/T, 9624), anti-phospho-AKT substrate (RXXS/T, 9614) and CRTC2 (pS171, 2892) from Cell Signaling. CRTC2 (pS275) antibody was employed as described (19).

C1CCC[C@H]2CCCN3CC[C@@H](CCCCCC[C@@H]4CCCN5CC[C@@H](CC1)O[C@@H]45)O[C@@H]23 [Xestospongin C]
CRE-luciferase (luc) reporter activity / activation [1]: blocked
glucagon-induced dephosphorylation (and nuclear translocation) of CRTC2 (CRTC2): blocked
